Assays:
[1] = test system: cholesterol and triglycerides; assay: hyperlipidemie test induced in the rat by the administration of Triton WR 1330; format: in vivo; conditions: Triton induced hyperlipidemia, at the minimum dose of 37.5 mg/kg p.os
Excerpt: The bis(pyridyl-3-carboxilate) esters of formula (I) show an antidislipemic activity higher than that of nicotinic acid.

[2] = test system: cholesteryl ester hydrolysis and synthesis (acyl-CoA: cholesterol-acyltransferase); conditions: cited from earlier work
[3] = test system: levels of acetylcholine in the cortex; assay: experimental model in the mouse of the presinaptic neurochemical damage of Alzheimer disease (Mantione); format: in vivo; conditions: Alzheimer model (Mantione et al.)

C[N+](C)(C)CCOP(=O)([O-])OC[C@@H](COC(=O)c1cccnc1)OC(=O)c1cccnc1 [optically active form L(alpha), L(alpha) glycerylphosphorylcholine bis(pyridyl-3-carboxilate)]
inhibition of cholesterol [1]: 50% | inhibition of triglycerides [1]: 50%

CCCCC/C=C\C/C=C\CCCCCCCC(=O)OC[C@H](COP(=O)([O-])OCC[N+](C)(C)C)OC(=O)CCCCCCC/C=C\C/C=C\CCCCC [polienoic phosphatidylcholine, glyceril phosphorylcholine Dilinoleate]
anti-aterogenic action [2]: An anti-aterogenic action | hydrolysis of cholesteryl ester [2]: an increase of the hydrolysis of cholesteryl ester | synthesis of cholesteryl esters from acyl-CoA: cholesterol-acyltransferase [2]: a reduction of the synthesis of cholesteryl esters

L(alpha) glycerylphosphorylcholine bis(pyridyl-3-carboxilate) calcium salt
inhibition of the regional diminution of the levels of acetylcholine in the cortex [3]: inhibits, in a dose-answer form, the regional diminution of the levels of acetylcholine in the cortex

From patent US4699901A, “Diacyl derivatives of glycerylphosphorylcholine, their preparation, and antihyperlipidemic compositions” (Neopharmed SpA, priority 1984, dated 1987)
